pKi: −log10 of the molar value.
Columns and labels:
MMP-2 = molecular target: T1, MMP-2 (Homo sapiens, UniProt P08253); assay: biochemical
T1 sequence (P08253 110-660): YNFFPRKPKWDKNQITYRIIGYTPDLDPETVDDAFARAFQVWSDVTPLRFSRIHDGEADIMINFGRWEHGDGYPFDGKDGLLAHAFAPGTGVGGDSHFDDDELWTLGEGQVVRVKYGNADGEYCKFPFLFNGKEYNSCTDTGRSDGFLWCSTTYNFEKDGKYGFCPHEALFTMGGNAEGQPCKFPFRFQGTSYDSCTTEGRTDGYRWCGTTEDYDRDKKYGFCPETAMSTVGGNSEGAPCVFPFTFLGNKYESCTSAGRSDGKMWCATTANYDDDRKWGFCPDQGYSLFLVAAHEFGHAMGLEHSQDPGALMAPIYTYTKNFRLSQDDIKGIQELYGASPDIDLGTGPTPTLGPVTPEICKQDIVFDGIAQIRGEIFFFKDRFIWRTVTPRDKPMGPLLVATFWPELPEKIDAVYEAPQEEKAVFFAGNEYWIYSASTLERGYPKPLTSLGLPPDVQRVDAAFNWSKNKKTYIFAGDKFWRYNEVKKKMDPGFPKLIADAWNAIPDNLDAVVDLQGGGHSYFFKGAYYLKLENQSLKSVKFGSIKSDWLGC

MMP-9 = molecular target: T2, MMP-9 (Homo sapiens, UniProt P14780); format: biochemical; settings: 6 µM P218 substrate, pH 6.5, 25 min at 37°C; calculated from IC50; read-out: MMP-9 Kf
T2 construct: made in house
T2 sequence (P14780 107-707 limits assumed): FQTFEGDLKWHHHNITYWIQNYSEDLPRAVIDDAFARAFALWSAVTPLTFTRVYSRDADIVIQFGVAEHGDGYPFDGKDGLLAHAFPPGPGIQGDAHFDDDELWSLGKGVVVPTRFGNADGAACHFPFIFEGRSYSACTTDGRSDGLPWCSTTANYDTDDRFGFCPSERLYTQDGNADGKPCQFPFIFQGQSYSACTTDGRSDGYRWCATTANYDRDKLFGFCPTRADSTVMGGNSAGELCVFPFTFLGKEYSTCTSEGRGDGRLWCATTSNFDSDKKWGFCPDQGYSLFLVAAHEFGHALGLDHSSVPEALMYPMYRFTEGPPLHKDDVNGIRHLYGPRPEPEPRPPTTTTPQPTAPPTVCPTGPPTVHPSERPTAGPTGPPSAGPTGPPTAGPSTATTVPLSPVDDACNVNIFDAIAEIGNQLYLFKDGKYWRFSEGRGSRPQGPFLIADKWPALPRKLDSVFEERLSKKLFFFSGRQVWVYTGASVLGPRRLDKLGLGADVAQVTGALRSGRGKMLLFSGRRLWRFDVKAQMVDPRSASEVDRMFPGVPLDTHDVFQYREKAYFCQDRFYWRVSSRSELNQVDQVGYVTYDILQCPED
From the text: (§1) The P218 quenched fluorescence assay (Microfluorometric Profiling Assay) is a modification of that originally described by Knight, et al., FEBS Lett. 296, 263, 1992 for a related substance and a variety of matrix metalloproteinases (MMPs) in cuvettes. The assay was run with each invention compound and the three MMPs, Mmp-3, MMP-9 and MMP-2, analyzed in parallel, adapted as follows for a 96-well microtiter plate and a Hamilton AT® workstation. P218 Fluorogenic Substrate: P218 is a synthetic substrate containing a 4-acetyl-7-methoxycoumarin (MCA) group in the N-terminal position and a 3-[2, 4-dinitrophenyl]-L-2,3-diaminopropionyl (DPA) group internally. This is a modification of a peptide reported by Knight (1992) that was used as a substrate for matrix metalloproteinases. Once the P218 peptide is cleaved (putative clip site at the Ala-Leu bond), the fluorescence of the MCA group can be detected on a fluorometer with excitation at 328 nm and emission at 393 nm. P218 is currently being produced BACHEM exclusively for Bayer. P218 has the structure: H-MCA-Pro-Lys-Pro-Leu-Ala-Leu-DPA-Ala-Arg-NH2 (MW 1332.2)
Recombinant Human Pro-MMP-9: Human pro-gelatinase B (pro-MMP-9) derived from U937 cDNA as described by Wilhelm, et al. J. Biol. Chem. 264, 17213, 1989 was expressed as the full-length form using a baculovirus protein expression system. The pro-enzyme was purified using methods previously described by Hibbs, et al. J. Biol. Chem. 260, 2493, 1984.
Activation of Pro-MMP-9: […] 20 µg/mL in 50 mM Tris at pH 7.4, 10mM CaCl2, 150 mM NaCl, and 0.005% Brij-35 (MMP-9 activation buffer) was activated by incubation with 0.5 mM p-aminophenylmercuric acetate (APMA) for 3.5 h at 37 °C. The enzyme was dialyzed against the same buffer to remove the APMA.
(§2) Hamiltion Microlab AT P!us: The MMP-Profiling Assay is performed robotically on a Hamilton MicroLab AT Plus®. The Hamilton is programmed to: (1) serially dilute up to 11 potential inhibitors automatically from a 2.5 mM stock in 100% DMSO; (2) distribute substrate followed by inhibitor into a 96 well Cytofluor plate; and (3) add a single enzyme to the plate with mixing to start the reaction. Subsequent plates for each additional enzyme are prepared automatically by beginning the program at the substrate addition point, remixing the diluted inhibitors and beginning the reaction by addition of enzyme. In this way, all MMP assays were done using the same inhibitor dilutions.
(§3) Millipore Cytofluor II. Following incubation, the plate was read on a Cytofluor II fluorometric place reader with excitation at 340 nm and emission at 395 nm with the gain set at 80.
(§4) Microfluorometric Reaction Buffer (MRB): Dilution of test compounds, enzymes, and P218 substrate for the microfluorometric assay were made in microfluorometric reaction buffer consisting of 50 mM 2-(N-morpholino)ethanesulfonic acid (MES) at pH 6.5 with 10 mM CaCl2, 150 mM NaCl, 0.005% Brij-35 and 1% DMSO.
(§5) MMP Microfluorometric Profiling Assay. The assay is done with a final substrate concentration of 6 µM P218 and approximately .5 to .8 nM MMP with variable drug concentrations. The Hamilton is programmed to serially dilute up to 11 compounds from a 2.5 mM stock (100% DMSO) to 10x the final compounds concentrations in the assay. Initially, the instrument delivers various amounts of microfluoromentric reaction buffer (MRB) to a 96 tube rack of 1 ml Marsh dilution tubes. The instrument then picks up 20 µl of inhibitor (2.5 mM) from the sample rack and mixes it with a buffer in row A of the Marsh rack, resulting in a 50 µM drug concentration. The inhibitors are then serially diluted to 10, 5, 1, .2, .05 and .01 µM. Position 1 on the sample rack contains only DMSO for the "enzyme-only" wells in the assay, which results in no inhibitor in column 1, rows A through H. The instrument then distributes 107 µl of P218 substrate (8.2 µM in MRB) to a single 96 well cytofluor microtiter plate. […]

MMP-3 = molecular target: T3, MMP-3 (Homo sapiens, UniProt P08254); format: biochemical; settings: 6 µM P218 substrate, pH 6.5, 25 min at 37°C; calculated from IC50; read-out: MMP-3 Kf
T3 construct: made in house; host or cells: CHO cells
T3 sequence (P08254 100-477): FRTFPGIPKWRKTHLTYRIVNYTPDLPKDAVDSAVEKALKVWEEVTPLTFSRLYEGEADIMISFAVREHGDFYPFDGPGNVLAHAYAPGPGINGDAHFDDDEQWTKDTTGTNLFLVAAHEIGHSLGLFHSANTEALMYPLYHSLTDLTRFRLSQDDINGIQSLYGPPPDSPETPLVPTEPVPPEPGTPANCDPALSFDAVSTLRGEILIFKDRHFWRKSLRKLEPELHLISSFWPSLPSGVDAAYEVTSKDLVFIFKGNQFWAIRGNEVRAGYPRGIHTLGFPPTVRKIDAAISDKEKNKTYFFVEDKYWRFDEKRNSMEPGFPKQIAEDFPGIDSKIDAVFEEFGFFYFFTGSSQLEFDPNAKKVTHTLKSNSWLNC
From the text: as §1
Recombinant Human CHO Pro-MMP-3: Human CHO pro-stromelysin-257 (pro-MMP-3) was expressed and purified as described by Housley, et al., J. Biol. Chem. 268, 4481, 1993.
Activation of Pro-MMP-3 Pro-MMP-3 at 1.72 µM (100 µg/mL) in 5 mM Tris at pH 7.5, 5 mM CaCl2, 25 mM NaCl, and 0.005% Brij-35 (MMP-3 activation buffer) was activated by incubation with TPCK (N-tosyl-(L)-phenylalanine chloromethyl ketone) trypsin (1:100 w/w to pro-MMP-3) at 25 °C for 30 min. The reaction was stopped by addition of soybean trypsin inhibitor (SBTI: 5:1 w/w to trypsin concentration). This activation protocol results in the formation of 45 kDa active MMP-3, which still contains the C-terminal portion of the enzyme.
as §2, §3, §4, §5

| Structure (SMILES) | pKi (MMP-2) | pKi (MMP-9) | pKi (MMP-3) |
| --- | --- | --- | --- |
| CC(C)CCNC(=O)c1cccc(CCC(CC(=O)c2ccc(-c3ccc(Cl)cc3)cc2)C(=O)O)c1 (stereo not drawn) [XIV, 4'-chloro-α-[2-[3-[[(3-methylbutyl)amino]carbonyl]phenyl]ethyl]-γ-oxo-[1,1'-biphenyl]-4-butanoic acid] | 6.96 | 6.15 | 6.51 |
| CCOC(=O)CNC(=O)c1ccc(CCC(CC(=O)c2ccc(-c3ccc(Cl)cc3)cc2)C(=O)O)cc1 (stereo not drawn) [XIX, 4'-chloro-α-[2-[4-[[(2-ethoxy-2-oxoethyl)amino]carbonyl]phenyl]ethyl]-γ-oxo[1,1'-biphenyl]4-butanoic acid] | 7.08 | 6.37 | 6.42 |
| O=C(CC(CCc1cccc(C(=O)NCc2ccccc2)c1)C(=O)O)c1ccc(-c2ccc(Cl)cc2)cc1 (stereo not drawn) [XV, 4'-chloro-γ-oxo-α-[2-[3-[[(phenylmethyl)amino]carbonyl]phenyl]ethyl]-[1,1'-biphenyl]-4-butanoic acid] | 6.98 | 6.31 | 6.44 |
| CCOC(=O)CN(C)C(=O)c1cccc(CCC(CC(=O)c2ccc(-c3ccc(Cl)cc3)cc2)C(=O)O)c1 (stereo not drawn) [XVI, 4'-chloro-α-[2-[3-[[(2-ethoxy-2-oxoethyl)methylamino]carbonyl]phenyl]ethyl]-γ-oxo-[1,1'-biphenyl]-4-butanoic acid] | 8.01 | 6.86 | 7.61 |
| CC(C)CCNC(=O)c1ccc(CCC(CC(=O)c2ccc(-c3ccc(Cl)cc3)cc2)C(=O)O)cc1 (stereo not drawn) [XVIII, 4'-chloro-α-[2-[4-[[(3-methylbutyl)amino]carbonyl]phenyl]ethyl]-γ-oxo-[1,1'-biphenyl]-4-butanoic acid] | 6.86 | 6.34 | 6.17 |
